Patent publication EP4603105A1, “PHARMACEUTICAL COMPOSITION CONTAINING CYCLIC COMPOUND HAVING SELECTIVE KRAS INHIBITORY EFFECT AGAINST HRAS AND NRAS” (CHUGAI SEIYAKU KABUSHIKI KAISHA, priority 2022, dated 2024)
pIC50, pKd: −log10 of the molar value. Like-named read-outs stand apart in the source and are kept apart here.

Tests used:
[1] = target: GDP-bound NRAS wild-type protein (Homo sapiens, UniProt P01111); test: Binding to NRAS by surface plasmon resonance (SPR), KD and KD ratio to KRAS
Method in brief: (§1)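 Biotinylated GDP-bound RAS was captured at about 100–300 RU. Running buffer: HBS pH 7.4, 10 mM MgCl2, 10 µM GDP, 1 mM DTT, 0.01% Tween 20, 4% DMSO.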

[2] = system: human lung cancer strain NCI-H441; test: NCI-H441 cell proliferation inhibitory activity (CellTiter-Glo, 4 days); format: cell-based; conditions: read-out: NCl-H441 IC50
Method in brief: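 Step one: dispense the test compound in serial DMSO dilutions. Step three: add the reagent and measure […].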

[3] = target: GDP-bound KRAS wild-type protein (Homo sapiens, UniProt P01116); test: Binding to KRAS by surface plasmon resonance (SPR), dissociation constant KD
GDP-bound KRAS wild-type protein, sequence (P01116 1-188 isoform P01116-2): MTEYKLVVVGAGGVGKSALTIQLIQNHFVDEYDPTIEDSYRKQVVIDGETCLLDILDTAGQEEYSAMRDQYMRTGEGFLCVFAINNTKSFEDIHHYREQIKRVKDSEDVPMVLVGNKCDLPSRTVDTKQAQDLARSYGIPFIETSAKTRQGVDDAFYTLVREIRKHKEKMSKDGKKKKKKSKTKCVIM
Method in brief: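 Captured GDP-RAS (~100–300 RU) was exposed to increasing compound concentrations, 75 s per step, in running buffer with 10 µM GDP, 10 mM MgCl2 and 4% DMSO at pH 7.4.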

[4] = target: HRAS wild-type protein (Homo sapiens, UniProt P01112); test: Binding to HRAS by surface plasmon resonance (SPR), KD and KD ratio to KRAS
HRAS wild-type protein, sequence (P01112 whole entry): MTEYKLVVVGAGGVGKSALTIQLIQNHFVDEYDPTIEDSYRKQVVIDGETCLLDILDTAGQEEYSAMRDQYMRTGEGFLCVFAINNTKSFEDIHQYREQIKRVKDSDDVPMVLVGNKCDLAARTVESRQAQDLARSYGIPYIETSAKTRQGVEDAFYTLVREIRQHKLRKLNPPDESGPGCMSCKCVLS
Method in brief: as §1

[5] = ratio of KD for GDP-bound NRAS wild-type protein to KD for KRAS
[6] = ratio of KD for HRAS wild-type protein to KD for KRAS
[7] = ratio of KD with respect to GDP-bound NRAS wild-type protein to KD with respect to KRAS
[8] = 50% proliferation inhibitory concentration, four days
[9] = Single Cycle Kinetics, 1:1 binding model
[10] = ratio of KD with respect to HRAS wild-type protein to KD with respect to KRAS

GDP-bound NRAS wild-type protein, sequence (P01111 whole entry): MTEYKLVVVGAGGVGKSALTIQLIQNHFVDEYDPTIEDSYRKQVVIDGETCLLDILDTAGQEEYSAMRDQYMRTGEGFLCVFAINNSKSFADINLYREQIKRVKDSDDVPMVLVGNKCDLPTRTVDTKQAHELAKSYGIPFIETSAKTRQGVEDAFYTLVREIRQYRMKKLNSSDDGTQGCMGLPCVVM

Row | Structure (SMILES) | NRAS /KRAS [1, 5] | pIC50 ([2]; NCI-H441 cells, 4 days) | pKd ([3]; Single Cycle Kinetics) | HRAS /KRAS [4, 6] | pKd ([3]; 1:1 binding model) | NRAS /KRAS [1, 7] | pIC50 [2, 8] | pKd [3, 9] | HRAS /KRAS [4, 10]
1 | CCCOC[C@H]1C(=O)N[C@@H](C2CCCC2)C(=O)N(CCC)CC(=O)N(C)[C@H]2C/C=C\CCN(C2=O)[C@@H](Cc2ccc(C(F)F)cc2)C(=O)N(C)CC(=O)N[C@@H](CCc2ccc(C(F)(F)F)c(Cl)c2)C(=O)N2C[C@H](OC(C)C)C[C@H]2C(=O)N(C)C2(CCC2)C(=O)N(C)[C@@H](C(CC)CC)C(=O)N(C)[C@H](C(=O)N(C)C)CC(=O)N1C [PP3489] | AA (a compound having 20 or more is denoted as AA) | 7.35 | 8.89 | A (a compound having 10 or more and less than 20 is denoted as A) |  |  |  |  | 
2 | CCC[C@H]1C(=O)N[C@@H]([C@@H](C)CC)C(=O)N(C)CC(=O)N(C)[C@H]2C/C=C\CCN(C2=O)[C@@H](Cc2ccc(C(F)(F)F)cc2)C(=O)N(C)CC(=O)N[C@@H](CCc2ccc(C(F)(F)F)c(OC)c2)C(=O)N2C[C@H](OCC)C[C@H]2C(=O)OC2(CCC2)C(=O)N(C)[C@@H](C2CCCC2)C(=O)N(C)[C@H](C(=O)N(C)C)CC(=O)N1C [PP3370] | A (a compound having 10 or more and less than 20 is denoted as A) | 8.17 | 9.85 | B (a compound having 3 or more and less than 10 is denoted as B) |  |  |  |  | 
3 | CCC[C@H]1C(=O)N[C@@H](CC(C)C)C(=O)N(CCOC)CC(=O)N(C)[C@H]2C/C=C\CCN(C2=O)[C@@H](Cc2ccc(C)cc2)C(=O)N(C)CC(=O)N[C@@H](CCc2ccc(C(F)(F)F)c(OC)c2)C(=O)N2C[C@H](OCC)C[C@H]2C(=O)NC2(CCC2)C(=O)N(C)[C@@H](C2CCCC2)C(=O)N(C)[C@H](C(=O)N(C)C)CC(=O)N1C [PP2542] | B (a compound having 3 or more and less than 10 is denoted as B) | 6.40 |  | B (a compound having 3 or more and less than 10 is denoted as B) | 8.34 |  |  |  | 
4 | CCC[C@H]1C(=O)N[C@@H]([C@@H](C)CC)C(=O)N(C)CC(=O)N(C)[C@H]2C/C=C\CCN(C2=O)[C@@H](Cc2ccc(C)cc2)C(=O)N(C)CC(=O)N[C@@H](CCc2cc(F)c(C(F)(F)F)c(F)c2)C(=O)N2C[C@H](OCC)C[C@H]2C(=O)NC2(CC(C)(C)C2)C(=O)N(C)[C@@H](CC(C)(C)C)C(=O)N(C)[C@H](C(=O)N(C)C)CC(=O)N1C [PP2706] | A (a compound having 10 or more and less than 20 is denoted as A) | 8.64 |  | B (a compound having 3 or more and less than 10 is denoted as B) | 10.12 |  |  |  | 
5 | CCCO[C@@H]1C[C@H]2C(=O)NC3(CC(C)(C)C3)C(=O)N(C)[C@@H](C3CCCC3)C(=O)N(C)[C@H](C(=O)N(C)CC)CC(=O)N(C)[C@@H](COCC)C(=O)N[C@@H]([C@@H](C)CC)C(=O)N(C)CC(=O)N(C)[C@H]3C/C=C\CCN(C3=O)[C@@H](Cc3ccc(C)cc3)C(=O)N(C)CC(=O)N[C@@H](CCc3cc(F)c(C(F)(F)F)c(F)c3)C(=O)N2C1 [PP3419] | A (a compound having 10 or more and less than 20 is denoted as A) | 7.92 | 9.82 | A (a compound having 10 or more and less than 20 is denoted as A) |  |  |  |  | 
6 | CC[C@H](C)[C@@H]1NC(=O)[C@H](COC)N(C)C(=O)C[C@@H](C(=O)N(C)C)N(C)C(=O)[C@H](C2CCCC2)N(C)C(=O)C2(CC(C)(C)C2)NC(=O)[C@@H]2C[C@H](C)CN2C(=O)[C@H](CCc2ccc(C(F)(F)F)c(OC)c2)NC(=O)CN(C)C(=O)[C@H](Cc2ccc(C)cc2)N2CC/C=C\C[C@@H](C2=O)N(C)C(=O)[C@@H]2C[C@H](OC)CN2C1=O [PP2390] | A (a compound having 10 or more and less than 20 is denoted as A) | 7.01 |  | B (a compound having 3 or more and less than 10 is denoted as B) | 9.55 |  |  |  | 
7 | CCC[C@H]1C(=O)N[C@@H]([C@@H](C)CC)C(=O)N(C)CC(=O)N(C)[C@H]2C/C=C\CCN(C2=O)[C@@H](Cc2ccc(C(F)F)cc2)C(=O)N(C)CC(=O)N[C@@H](CCc2ccc(Cl)c(Cl)c2)C(=O)N2C[C@H](OC(C)C)C[C@H]2C(=O)NC2(CC(C)(C)C2)C(=O)N(C)[C@@H](C(CC)CC)C(=O)N(C)[C@H](C(=O)N(C)C)CC(=O)N1C [PP2535] | AA (a compound having 20 or more is denoted as AA) | 7.57 |  | A (a compound having 10 or more and less than 20 is denoted as A) | 9.27 |  |  |  | 
8 | CCCOC[C@H]1C(=O)N[C@@H](C2CCCC2)C(=O)N(CCC)CC(=O)N(C)[C@H]2C/C=C\CCN(C2=O)[C@@H](Cc2ccc(C(F)F)cc2)C(=O)N(C)CC(=O)N[C@@H](CCc2cc(F)c(C(F)(F)F)c(F)c2)C(=O)N2C[C@H](OC(C)C)C[C@H]2C(=O)N(C)C2(CCC2)C(=O)N(C)[C@@H](C(CC)CC)C(=O)N(C)[C@H](C(=O)N(C)C)CC(=O)N1C [PP3487] | A (a compound having 10 or more and less than 20 is denoted as A) | 7.40 | 9.02 | A (a compound having 10 or more and less than 20 is denoted as A) |  |  |  |  | 
9 | CCO[C@@H]1C[C@H]2C(=O)NC3(CCC3)C(=O)N(C)[C@@H](C(CC)CC)C(=O)N(C)[C@H](C(=O)N(C)C)CC(=O)N(C)[C@@H](COC)C(=O)N[C@@H]([C@@H](C)CC)C(=O)N(C)CC(=O)N(C)[C@H]3C/C=C\CCN(C3=O)[C@@H](Cc3ccc(C(F)(F)F)cc3)C(=O)N(C)CC(=O)N[C@@H](CCc3ccc(Cl)c(Cl)c3)C(=O)N2C1 [PP1221] |  |  |  |  |  | AA (a compound having 20 or more is denoted as AA) | 7.39 | 9.40 | A (a compound having 10 or more and less than 20 is denoted as A)
10 | CCO[C@@H]1C[C@H]2C(=O)NC3(CC(C)(C)C3)C(=O)N(C)[C@@H](C3CCCC3)C(=O)N(C)[C@H](C(=O)N(C)CC)CC(=O)N(C)[C@@H]([C@@H](C)OC)C(=O)N[C@@H]([C@@H](C)CC)C(=O)N(C)CC(=O)N(C)[C@H]3C/C=C\CCN(C3=O)[C@@H](Cc3ccc(C)cc3)C(=O)N(C)CC(=O)N[C@@H](CCc3ccc(C(F)(F)F)c(OC)c3)C(=O)N2C1 [PP3176] | A (a compound having 10 or more and less than 20 is denoted as A) | 7.87 | 10.05 | A (a compound having 10 or more and less than 20 is denoted as A) |  |  |  |  | 
11 | CCO[C@@H]1C[C@H]2C(=O)NC3(CC(C)(C)C3)C(=O)N(C)[C@@H](C3CCCC3)C(=O)N(C)[C@H](C(=O)N(C)C)CC(=O)N(C)[C@@H]([C@H](C)OC)C(=O)N[C@@H]([C@@H](C)CC)C(=O)N(C)CC(=O)N(C)[C@H]3C/C=C\CCN(C3=O)[C@@H](Cc3ccc(C(F)(F)F)cc3)C(=O)N(C)CC(=O)N[C@@H](CCc3ccc(C(F)(F)F)c(Cl)c3)C(=O)N2C1 [PP3171] | A (a compound having 10 or more and less than 20 is denoted as A) | 7.80 | 10.12 | A (a compound having 10 or more and less than 20 is denoted as A) |  |  |  |  | 
12 | C#CC[C@H]1C(=O)N[C@@H]([C@@H](C)CC)C(=O)N(C2CC2)CC(=O)N(C)[C@H]2C/C=C\CCN(C2=O)[C@@H](Cc2ccc(C)cc2)C(=O)N(C)CC(=O)N[C@@H](CCc2cc(F)c(C(F)(F)F)c(F)c2)C(=O)N2C[C@H](OCC)C[C@H]2C(=O)N(C)C2(CCC2)C(=O)N(C)[C@@H](C2CCCC2)C(=O)N(C)[C@H](C(=O)N(C)C)CC(=O)N1C [PP3250] | A (a compound having 10 or more and less than 20 is denoted as A) | 8.55 | 10.00 | B (a compound having 3 or more and less than 10 is denoted as B) |  |  |  |  | 
13 | CC[C@H](C)[C@@H]1NC(=O)[C@H](CC)N(C)C(=O)C[C@@H](C(=O)N(C)C)N(C)C(=O)[C@H](C2CCCC2)N(C)C(=O)C2(CCC2)NC(=O)[C@@H]2CCN2C(=O)[C@H](CCc2cc(F)c(C(F)(F)F)c(F)c2)NC(=O)CN(C)C(=O)[C@H](Cc2ccc(C(F)(F)F)cc2)N2CC/C=C\C[C@@H](C2=O)N(C)C(=O)CN(C)C1=O [PP1139] |  |  |  |  |  | A (a compound having 10 or more and less than 20 is denoted as A) | 6.53 | 9.37 | A (a compound having 10 or more and less than 20 is denoted as A)
14 | CCOC[C@H]1C(=O)N[C@@H]([C@@H](C)CC)C(=O)N(C)CC(=O)N(C)[C@H]2C/C=C\CCN(C2=O)[C@@H](Cc2ccc(C)cc2)C(=O)N(C)CC(=O)N[C@@H](CCc2ccc(C(F)(F)F)c(OC)c2)C(=O)N2C[C@H](OCC)C[C@H]2C(=O)NC2(CC(C)(C)C2)C(=O)N(C)[C@@H](C2CCCC2)C(=O)N(C)[C@H](C(=O)N(CC)CC)CC(=O)N1C [PP2406] | A (a compound having 10 or more and less than 20 is denoted as A) | 7.67 |  | A (a compound having 10 or more and less than 20 is denoted as A) | 9.54 |  |  |  | 
15 | CCC[C@H]1C(=O)N[C@@H](C2CCCC2)C(=O)N(C)CC(=O)N(C)[C@H]2C/C=C\CCN(C2=O)[C@@H](Cc2ccc(C(F)(F)F)cc2)C(=O)N(C)CC(=O)N[C@@H](CCc2ccc(C(F)(F)F)c(Cl)c2)C(=O)N2CC3(CC3)C[C@H]2C(=O)N(C)C2(CCC2)C(=O)N(C)[C@@H]([C@@H](C)CC)C(=O)N(C)[C@H](C(=O)N(C)C)CC(=O)N1C [PP3323] | AA (a compound having 20 or more is denoted as AA) | 8.04 | 8.89 | A (a compound having 10 or more and less than 20 is denoted as A) |  |  |  |  | 
